Legend:
cocklebur = experiment: Test B pre/postemergence cocklebur; type: in vivo, Xanthium strumarium
Summary of the method: (§1)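 Response is a visual 0-to-10 score relative to untreated plants, where 0 means no effect and 10 means complete control, taken twelve to sixteen days after application. Treatments went onto soil at planting and onto foliage of 1- to 4-leaf plants, using a surfactant-containing non-phytotoxic solvent.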

velvetleaf = experiment: Test B pre/postemergence velvetleaf; type: in vivo, Abutilon theophrasti
Summary of the method: as §1

crabgrass = experiment: Test B pre/postemergence crabgrass; type: in vivo, Digitaria sanguinalis
Summary of the method: as §1

morningglory = experiment: Test B pre/postemergence morningglory; type: in vivo, Ipomoea hederacea
Summary of the method: as §1

purple nutsedge = experiment: Test B pre/postemergence purple nutsedge; type: in vivo, Cyperus rotundus
Summary of the method: as §1

rape = experiment: Test B pre/postemergence rape; type: in vivo, Brassica napus
Summary of the method: as §1

wheat = experiment: Test B pre/postemergence wheat; type: in vivo, Triticum aestivum
Summary of the method: as §1

pigweed = experiment: Test B pre/postemergence pigweed; type: in vivo, Amaranthus retroflexus
Summary of the method: as §1

corn = experiment: Test B pre/postemergence corn; type: in vivo, Zea mays
Summary of the method: as §1

soybean = experiment: Test B pre/postemergence soybean; type: in vivo, Glycine max
Summary of the method: as §1

blackgrass = experiment: Test B pre/postemergence blackgrass; type: in vivo, Alopecurus myosuroides
Summary of the method: as §1

wild oat = experiment: Test B pre/postemergence wild oat; type: in vivo, Avena fatua
Summary of the method: as §1

surinam grass = experiment: Test B pre/postemergence surinam grass; type: in vivo, Brachiaria decumbens
Summary of the method: as §1

bedstraw = experiment: Test B pre/postemergence bedstraw; type: in vivo, Galium aparine
Summary of the method: as §1

giant foxtail = experiment: Test B pre/postemergence giant foxtail; type: in vivo, Setaria faberii
Summary of the method: as §1

sugar beet = experiment: Test B pre/postemergence sugar beet; type: in vivo, Beta vulgaris
Summary of the method: as §1

[1] = Postemergence, Rate 62 g/ha, scale 0 to 10, 0 is no effect, 10 is complete control
[2] = Postemergence, Rate 125 g/ha, scale of 0 to 10 where 0 is no effect and 10 is complete control
[3] = Postemergence, Rate 500 g/ha, scale 0 (no effect) to 10 (complete control)
[4] = Preemergence, Rate 250 g/ha, scale 0 (no effect) to 10 (complete control)
[5] = Rate 62 g/ha, Preemergence, scale 0 to 10
[6] = Rate 125 g/ha, Preemergence, scale 0 to 10 (0 no effect, 10 complete control)
[7] = Rate 250 g/ha, Postemergence, scale 0 to 10, 0 is no effect, 10 is complete control
[8] = Rate 500 g/ha, Preemergence, scale 0 to 10 (0 no effect, 10 complete control)

CON=CC(C)n1c(=O)on(C(=O)N(c2ccccc2)C(C)C)c1=O (centres unmarked) [Compound 790]
10: Cocklebur plant response rating (cocklebur; [4]) | Cocklebur plant response rating (cocklebur; [8]) | Crabgrass plant response rating (crabgrass; [4]) | Crabgrass plant response rating (crabgrass; [5]) | Crabgrass plant response rating (crabgrass; [6]) | Crabgrass plant response rating (crabgrass; [8]) | Morningglory plant response rating (morningglory; [3]) | Redroot pigweed plant response rating (pigweed; [8]) | Blackgrass plant response rating (blackgrass; [8]) | Wild oats plant response rating (wild oat; [8]) | Giant foxtail plant response rating (giant foxtail; [5]) | Giant foxtail plant response rating (giant foxtail; [6]) | Giant foxtail plant response rating (giant foxtail; [8])
7: Velvetleaf plant response rating (velvetleaf; [3]) | Velvetleaf plant response rating (velvetleaf; [8]) | Morningglory plant response rating (morningglory; [7]) | Morningglory plant response rating (morningglory; [8]) | Nutsedge plant response rating (purple nutsedge; [3]) | Corn plant response rating (corn; [6]) | B. signalgrass plant response rating (surinam grass; [7]) | B. signalgrass plant response rating (surinam grass; Rate 500 g/ha, Postemergence, scale 0 to 10, 0 is no effect, 10 is complete control) | Bedstraw plant response rating (bedstraw; [4]) | Sugarbeets plant response rating (sugar beet; [3]) | Sugarbeets plant response rating (sugar beet; [8])
2: Velvetleaf plant response rating (velvetleaf; [6]) | Plant response rating, Morningglory (morningglory; [1]) | Rape plant response rating (rape; [5]) | Plant response rating, Wheat (wheat; [1]) | Wheat plant response rating (wheat; [6]) | Redroot pigweed plant response rating (pigweed; [5]) | Corn plant response rating (corn; [2]) | Corn plant response rating (corn; [5]) | Plant response rating, Soybean (soybean; [1]) | Soybean plant response rating (soybean; [8]) | Plant response rating, B. signalgrass (surinam grass; [1]) | Sugarbeets plant response rating (sugar beet; [6])
3: Rape plant response rating (rape; [3]) | Rape plant response rating (rape; [7]) | Wild oats plant response rating (wild oat; [3]) | Bedstraw plant response rating (bedstraw; [6])
6: Redroot pigweed plant response rating (pigweed; [6]) | Wild oats plant response rating (wild oat; [6]) | B. signalgrass plant response rating (surinam grass; [2])
8: Rape plant response rating (rape; [8]) | Corn plant response rating (corn; [4]) | Blackgrass plant response rating (blackgrass; [5]) | B. signalgrass plant response rating (surinam grass; Rate 62 g/ha, Preemergence, scale 0 (no effect) to 10 (complete control)) | Giant foxtail plant response rating (giant foxtail; [3]) | Giant foxtail plant response rating (giant foxtail; [7])
4: Plant response rating, Velvetleaf (velvetleaf; [1]) | Morningglory plant response rating (morningglory; [2]) | Rape plant response rating (rape; [6]) | Wheat plant response rating (wheat; [7]) | Corn plant response rating (corn; [3]) | Corn plant response rating (corn; [7]) | Soybean plant response rating (soybean; [3]) | Soybean plant response rating (soybean; [7]) | Plant response rating, Blackgrass (blackgrass; [1])
5: Velvetleaf plant response rating (velvetleaf; [7]) | Nutsedge plant response rating (purple nutsedge; [7]) | Wheat plant response rating (wheat; [3]) | Redroot pigweed plant response rating (pigweed; [2]) | Redroot pigweed plant response rating (pigweed; [3]) | Redroot pigweed plant response rating (pigweed; [7]) | Blackgrass plant response rating (blackgrass; [2]) | Blackgrass plant response rating (blackgrass; [3]) | Blackgrass plant response rating (blackgrass; [7]) | Bedstraw plant response rating (bedstraw; [3])
lo: Giant foxtail plant response rating (giant foxtail; [4])
0: Plant response rating, Cocklebur (cocklebur; [1]) | Cocklebur plant response rating (cocklebur; [2]) | Cocklebur plant response rating (cocklebur; [3]) | Cocklebur plant response rating (cocklebur; [5]) | Cocklebur plant response rating (cocklebur; [6]) | Cocklebur plant response rating (cocklebur; [7]) | Velvetleaf plant response rating (velvetleaf; [5]) | Morningglory plant response rating (morningglory; [5]) | Morningglory plant response rating (morningglory; [6]) | Plant response rating, Nutsedge (purple nutsedge; [1]) | Nutsedge plant response rating (purple nutsedge; [2]) | Nutsedge plant response rating (purple nutsedge; [5]) | Nutsedge plant response rating (purple nutsedge; [6]) | Nutsedge plant response rating (purple nutsedge; [8]) | Plant response rating, Rape (rape; [1]) | Rape plant response rating (rape; [2]) | Wheat plant response rating (wheat; [5]) | Plant response rating, Redroot pigweed (pigweed; [1]) | Plant response rating, Corn (corn; [1]) | Soybean plant response rating (soybean; [5]) | Soybean plant response rating (soybean; [6]) | Plant response rating, Wild oats (wild oat; [1]) | Wild oats plant response rating (wild oat; [5]) | Wild oats plant response rating (wild oat; [7]) | Plant response rating, Bedstraw (bedstraw; [1]) | Bedstraw plant response rating (bedstraw; [2]) | Bedstraw plant response rating (bedstraw; [5]) | Bedstraw plant response rating (bedstraw; [7]) | Plant response rating, Sugarbeets (sugar beet; [1]) | Sugarbeets plant response rating (sugar beet; [7])
1: Sugarbeets plant response rating (sugar beet; [5])
9: Plant response rating, Crabgrass (crabgrass; [1]) | Crabgrass plant response rating (crabgrass; [3]) | Crabgrass plant response rating (crabgrass; [7]) | Wheat plant response rating (wheat; [8]) | Corn plant response rating (corn; [8]) | Blackgrass plant response rating (blackgrass; [4]) | Blackgrass plant response rating (blackgrass; [6]) | B. signalgrass plant response rating (surinam grass; [4]) | B. signalgrass plant response rating (surinam grass; [6]) | B. signalgrass plant response rating (surinam grass; [8]) | Bedstraw plant response rating (bedstraw; [8]) | Plant response rating, Giant foxtail (giant foxtail; [1]) | Giant foxtail plant response rating (giant foxtail; [2])
